BindingDB's records for doi:10.7270/Q2K64GGJ (University of Pittsburgh, 2006)

What follows are compounds tested against T1, Dual specificity protein phosphatase 1 (Homo sapiens, UniProt P28562) (assay: DUSP1 dephosphorylation activity inhibition – biochemical, in vitro, dose response, specificity testing, selectivity assay, confirmation (AID 442)).
T1 sequence (P28562 whole entry): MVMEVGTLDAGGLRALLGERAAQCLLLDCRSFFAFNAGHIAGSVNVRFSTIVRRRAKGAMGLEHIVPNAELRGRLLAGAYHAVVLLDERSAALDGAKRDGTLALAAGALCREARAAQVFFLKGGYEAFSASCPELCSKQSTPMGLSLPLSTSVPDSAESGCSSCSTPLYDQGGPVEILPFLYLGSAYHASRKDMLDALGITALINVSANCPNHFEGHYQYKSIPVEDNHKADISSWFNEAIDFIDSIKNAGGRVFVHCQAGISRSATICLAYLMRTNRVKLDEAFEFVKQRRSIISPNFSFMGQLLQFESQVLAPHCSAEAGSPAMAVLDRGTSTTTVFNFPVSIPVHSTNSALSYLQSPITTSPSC

Row | IC50 [µM] | SMILES
1 | 18.1 | COc1ccc(Cn2c(C)nc3c(c2=O)c2nc4ccccc4nc2n3Cc2ccco2)cc1 [MLS000079944]
2 | 40.3 | Cc1ccc2c(c1C)NC(C(=O)O)C1CC=CC21 (stereo not given)
3 | 16.8 | CC(C)Cn1c(N)c(C(=O)COC(=O)c2cc(-c3ccco3)nc3ccccc23)c(=O)n(C)c1=O [2-(2-furanyl)-4-quinolinecarboxylic acid [2-[4-amino-1-methyl-3-(2-methylpropyl)-2,6-dioxo-5-pyrimidinyl]-2-oxoethyl] ester]
4 | 23.3 | CCCCC[C@H](O)C=C[C@H]1C=CC(=O)[C@@H]1C/C=C\CCCC(=O)O [(Z)-7-[(1R,5S)-2-oxidanylidene-5-[(E,3S)-3-oxidanyloct-1-enyl]cyclopent-3-en-1-yl]hept-5-enoic acid]

Row | SMILES | IC50 [µM]
5 | CCn1nc(-c2ccccc2)nc2c(=O)n(C)c(=O)nc1-2 [1-Ethyl-6-methyl-3-phenyl-1H-pyrimido[5,4-e][1,2,4]triazine-5,7-dione] | 0.19
